Source: patent publication US20220332699A1 (SAGE THERAPEUTICS, INC., priority 2019, published 2022)

What follows are compounds tested against CYP46A1 (Homo sapiens, UniProt Q9Y6A2) (assay: CYP46A1 Enzyme Assay 2 (testosterone substrate, HPLC-MS)). Conditions: not given.
Type: biochemical
Method in brief: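 CYP46A1 (5 μM final) with testosterone ([…] final) preincubated with compound 30 min at 37° C, reaction started with NADPH-generating system and run 15 min at 37° C. Quenched in methanol containing diclofenac internal standard; product read by HPLC-MS.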

Chain of CYP46A1 (Q9Y6A2 whole entry): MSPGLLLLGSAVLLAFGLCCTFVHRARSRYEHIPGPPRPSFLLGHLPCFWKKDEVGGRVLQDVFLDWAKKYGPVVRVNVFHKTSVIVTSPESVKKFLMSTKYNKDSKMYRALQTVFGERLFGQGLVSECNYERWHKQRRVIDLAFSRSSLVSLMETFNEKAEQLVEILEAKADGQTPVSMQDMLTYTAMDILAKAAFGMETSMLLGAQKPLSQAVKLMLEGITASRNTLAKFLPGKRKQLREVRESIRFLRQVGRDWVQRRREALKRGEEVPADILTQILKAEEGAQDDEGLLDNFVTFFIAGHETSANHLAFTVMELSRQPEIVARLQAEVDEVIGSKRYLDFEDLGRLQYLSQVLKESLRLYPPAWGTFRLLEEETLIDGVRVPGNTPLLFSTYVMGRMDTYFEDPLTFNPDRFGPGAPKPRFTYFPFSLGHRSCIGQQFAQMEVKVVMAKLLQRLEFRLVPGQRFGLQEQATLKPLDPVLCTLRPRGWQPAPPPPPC

Row | Compound | IC50 [nM]
1 | N#CC1(c2ccccc2)CCN(C(=O)c2cccnc2-c2ccncn2)CC1 [Compound A256, 4-phenyl-1-(2-(pyrimidin-4-yl)nicotinoyl)piperidine-4-carbonitrile] | > 1000

Same assay, conditions: read-out: IC50 (CYP46A1 inhibitory activity)

Row | Compound | IC50 [nM]
2 | N#CC1(Cc2cccc(C3CC3)c2)CCN(C(=O)c2cccnc2-c2ccncn2)CC1 [Compound A218, 4-(3-cyclopropylbenzyl)-1-(2-(pyrimidin-4-yl)nicotinoyl)piperidine-4-carbonitrile] | < 100
3 | N#CC1(Cc2ccc(F)cc2)CCN(C(=O)c2cccnc2-c2cccnc2)CC1 [Compound A18, 1-([2,3′-bipyridine]-3-carbonyl)-4-(4-fluorobenzyl)piperidine-4-carbonitrile] | > 1000
4 | N#C[C@]1(Cc2ccc(F)cc2)[C@@H]2CC[C@H]1CN(C(=O)c1cccnc1-c1ccncn1)C2 [Compound A253, (1R,5S,8r)-8-(4-fluorobenzyl)-3-(2-(pyrimidin-4-yl)nicotinoyl)-3-azabicyclo[3.2.1]octane-8-carbonitrile] | > 1000
5 | CC(c1c(F)cc(F)cc1F)C1(C#N)CCN(C(=O)c2cccnc2-c2ccncn2)CC1 (stereo in doubt) [Compound A270, (S)-1-(2-(pyrimidin-4-yl)nicotinoyl)-4-(1-(2,4,6-trifluorophenyl)ethyl)piperidine-4-carbonitrile] | < 100
6 | N#CC1(Cc2ccc(C3CC3)nc2)CCN(C(=O)c2cccnc2-c2ccncn2)CC1 [Compound A211, 4-((6-cyclopropylpyridin-3-yl)methyl)-1-(2-(pyrimidin-4-yl)nicotinoyl)piperidine-4-carbonitrile] | < 100
7 | N#CC1(Cc2cccc(F)c2)CCN(C(=O)c2cccnc2-c2ccncc2)CC1 [Compound A13, 1-{[2,4′-bipyridine]-3-carbonyl}-4-[(3-fluorophenyl)methyl]piperidine-4-carbonitrile] | < 100
8 | N#CC1(Cc2ccc(Cl)cc2F)CCN(C(=O)c2cccnc2-c2ccncn2)CC1 [Compound A205, 4-(4-chloro-2-fluorobenzyl)-1-(2-(pyrimidin-4-yl)nicotinoyl)piperidine-4-carbonitrile] | < 100
9 | Cc1ccc(CC2(C#N)CCN(C(=O)c3cccnc3-c3ccncn3)CC2)cc1 [Compound A35, 4-(4-methylbenzyl)-1-(2-(pyrimidin-4-yl)nicotinoyl)piperidine-4-carbonitrile] | < 100
10 | N#CC1(Cc2ccccc2F)CCN(C(=O)c2cccnc2-c2ccncc2)CC1 [Compound A12, 1-{[2,4′-bipyridine]-3-carbonyl}-4-[(2-fluorophenyl)methyl]piperidine-4-carbonitrile] | < 100
11 | N#CC1(Cc2c(F)cccc2F)CCN(C(=O)c2cccnc2-c2ccncn2)CC1 [Compound A207, 4-(2,6-difluorobenzyl)-1-(2-(pyrimidin-4-yl)nicotinoyl)piperidine-4-carbonitrile] | < 100
